Measured values reported in patent USRE31463E, “Radiopharmaceutical chelates and method of external imaging” (priority 1980, dated 1983).
Where two headings read alike, the source gives them in different places.

Experiments:
[1] = mouse, in vivo, iv; for injected dose in the blood: 60 min
[2] = Biodistribution in mice after intravenous injection (organ activities by scintillation counter); conditions: i.v., 60 minutes

Substance	route of elimination / renal clearance [1]	blood clearance [1]	injected dose in the blood [1]	injected dose in the intestines ([1]; 30 min)	other results
technetium-99m chelate of nitrilotriacetic acid [Example 10]	rapidly clear through the kidneys to urine				injected dose found in the liver and intestines [1]: less than 5%; eliminated in urine ([1]; 1 h): 40%
gallium-67 chelate of methyliminodiacetic acid [Example 15]	rapid renal clearance				
technetium-99m chelate of 10-carboxydecyliminodiacetic acid [Example 12]	eliminated through both kidneys and liver	rapid blood clearance	less than 6%		persistent activity in organs [1]: persistent activity noted in the liver and lungs
gallium-67 chelate of 8-hydroxyquinoline [Example 9]					injected dose in the blood [2]: 20%; injected dose in the intestines [2]: 13%; injected dose in the liver [2]: 25%
technetium-99m chelate of N-(o-bromobenzyl) iminodiacetic acid [Example 13]		rapid blood clearance	less than 5%	30%	
cobalt-57 chelate of N-[N'-(2,6-dimethylphenyl) carbamoylmethyl] iminodiacetic acid [Example 11]				12%	injected dose in the liver ([1]; 30 min): 28%
